Data set [1] has as its system Acinetobacter baumannii isolates resistant to classical antibiotics. Type of data set: cell-based. The settings on record: isolates resistant to classical antibiotics. An excerpt:
Thus, shortening the number of carbon atoms between the side-chain amino group and the α-carbon atom from four (Lys) to one (diaminopropionic acid) had very little effect on antibacterial activity (Table 2). We also determined the antibacterial activity of our five AMPs against 20 additional Acinetobacter baumannii isolates from four continents, 12 different countries and 17 different cities that were resistant to 18 different antibiotics. […] Thus, it is very clear that changing the type of positively-charged residue on the polar face of these AMPs had very little effect on the antibacterial activities.

The test system of the next data set is human red blood cells. Description: Hemolytic activity on human red blood cells. Conditions: for HC50: red cells of human, 18 h. As to the method:
For comparison, the inventors also determined the hemolytic activity after 18 hours at 37° C. Hemolysis can be determined with red blood cells (RBC) from various species including human red blood cells (hRBC).
(§1) The coupling procedure used 5 equivalents of Fmoc-D-amino acid or Fmoc-L-amino acid and HCTU (O-(1H-6-chlorobenzotriazole-1-yl)-1,1,3,3-tetramethyluronium hexafluorophosphate) and 6-Cl-HOBt (1-hydroxy-6-chloro-benztriazole) at 4.5 equivalents in DMF (Fisher Scientific, Denver, Colo.) and N-diisopropylethylamine (DIPEA) 10 equivalents (Oakwood Products, Inc., Estill, S.C.) in N-methyl-2-pyrrolidinone (NMP) (Fisher Scientific, Denver, Colo.) with the first and second couplings at room temperature for 30 min each. The deprotection procedure (removal of Fmoc protecting group) was carried out by treatment of the resin with 0.1 M HOBt (1-hydroxybenzotriazole) in DMF with 20% piperidine for 30 min. […] The resin was removed by filtration and peptide was precipitated with ice-cooled ethyl ether on ice for 15 min. Ether was decanted, the peptide was washed twice with ether and redissolved in acetonitrile/water (1:1, with 0.2% TFA) and the solution lyophilized to obtain the crude peptide. • Analytical and Preparative Purification by Reversed-Phase Chromatography: Analytical RP-HPLC: Column, Luna C18 (2), 250×4.6 mm I.D., 5 μm particle size, 100 Å pore size from Phenomenex (Torrance, Calif.). Run conditions: linear AB gradient (1% acetonitrile/min, starting from 2% acetonitrile) at a flow-rate of 1 ml/min, where eluent A is 0.2% aq. TFA and eluent B is 0.18% TFA in acetonitrile; temperature, 30° C. Preparative RP-HPLC: Peptides were dissolved in 0.2% aq. TFA containing 2% acetonitrile to a final concentration of 10 mg/ml. Following filtration through a 0.45 μm Millipore filter and subsequently through a 0.22 μm filter, the peptide solutions were loaded onto the column via multiple 20-ml injections into a 20-ml injection loop at a flow-rate of 10 ml/min. Column, Luna C18 (2), 250×30 mm I.D., 5 um particle size, 100 Å pore size from Phenomenex. Run conditions: 2% acetonitrile/min gradient up to an acetonitrile concentration 10% below that required to elute the peptide during analytical RP-HPLC, then shallow gradient elution (0.05% or 0.1% acetonitrile/min depending on the complexity of impurities near the product of interest on the analytical run of the crude peptide) at a flow-rate of 10 ml/min (same eluents as shown above for analytical RP-HPLC); at room temperature. • Temperature Profiling of Peptides on Reversed-phase HPLC to Measure Dimerization and Oligomerization: Purified peptides were analyzed on an Agilent 1200 series liquid chromatograph for temperature profiling using a Zorbax 300 SB-C8 column (150 mm×2.1 mm I.D.; 5 μm particle size, 300 Å pore size) from Agilent Technologies. […] Temperature profiling was carried out on peptide mixtures run at each temperature in 2° C. increments from 5° C. to 41° C. and 10° C. increments from 5° C. to 75° C. Twenty minutes was allowed between runs for temperature equilibration. • Characterization of Helical Structure: The mean residue molar ellipticities of peptides were determined by circular dichroism (CD) spectroscopy, using a Jasco J-815 spectropolarimeter (Jasco Inc. Easton, Md., USA) at 5° C. under KP buffer (50 mM NaH2PO4/Na2HPO4/100 mM KCl, pH 7.0) as well as in the presence of an α-helix inducing solvent, 2,2,2-trifluoroethanol, TFE, (50 mM NaH2PO4/Na2HPO4/100 mM KCl, pH 7.0 buffer/50% TFE). A 10-fold dilution of an approximately 500 μM stock solution of the peptide analogs was loaded into a 0.1 cm quartz cell and its ellipticity scanned from 195 to 250 nm.

Data set [2] deals with Acinetobacter baumannii strains resistant to Polymyxin B and Colistin. The settings on record: strains resistant to Polymyxin B and Colistin, 24 h.
From the text: as §1

The next data set addresses serum proteins. As to the kind of experiment: cell-based or functional assay.
Data set [3] deals with the molecule itself. Description: RP-HPLC temperature profiling, self-association (dimerization/oligomerization) against random coil control RC.

≈ marks a conversion by molar mass, not a printed value. Square brackets hold non-standard residues; d marks the D form. Dab = NCC[C@H](N)C(=O)O

As for `CC(=O)N[C@H](CCCCN)C(=O)N[C@H](CC(C)C)C(=O)N[C@@H](CCN)C(=O)N[C@H](CO)C(=O)N[C@H](CC(C)C)C(=O)N[C@H](CC(C)C)C(=O)N[C@@H](CCN)C(=O)N[C@@H](C(=O)N[C@H](CC(C)C)C(=O)N[C@H](CO)C(=O)N[C@@H](CCN)C(=O)N[C@H](C)C(=O)N[C@H](CCCCN)C(=O)N[C@H](C)C(=O)N[C@H](C)C(=O)N[C@H](CCCCN)C(=O)N[C@H](CC(C)C)C(=O)N[C@@H](CCN)C(=O)N[C@@H](C(=O)N[C@H](CC(C)C)C(=O)N[C@H](CC(C)C)C(=O)N[C@@H](CCN)C(=O)N[C@H](C)C(=O)N[C@H](CC(C)C)C(=O)N[C@H](CO)C(=O)N[C@@H](CCN)C(N)=O)[C@H](C)O)[C@H](C)O` [D86(Lys^1-6Dab-1), Ac-KL(L-Dab)SLL(L-Dab)TLS(L-Dab)AKAAKL(L-Dab)TLL(L-Dab)ALS(L-Dab)-amide], in data set [1], the “MIC 101887” value came out at 0.7 µM (≈ 1.89 µg/mL), the “MIC 961997” value was 0.7 µM (≈ 1.89 µg/mL), the “MIC 963618” value is 0.7 µM (≈ 1.89 µg/mL) and the “MIC 964304” value worked out at 1.5 µM (≈ 4.05 µg/mL). Also, in data set [1], the “MIC 977751” value amounted to 0.7 µM (≈ 1.89 µg/mL), the “MIC 981653” value was 0.7 µM (≈ 1.89 µg/mL), the “MIC 1002956” value turned out to be 0.7 µM (≈ 1.89 µg/mL) and the “MIC 1007660” value came out at 0.7 µM (≈ 1.89 µg/mL). Also, in data set [1], the “MIC 1010282” value was found to be 0.7 µM (≈ 1.89 µg/mL) and the “MIC 1035166” value turned out to be 0.7 µM (≈ 1.89 µg/mL). Further, in the data set with human red blood cells, the “HC50 Fold Improvement” value is listed as greater than 186, the “hemolytic activity against red blood cells from four blood donors” value is reported as “very little hemolytic activity” and the HC50 was greater than 742 µM.

With `CC(=O)N[C@H](CCCCN)C(=O)N[C@H](CC(C)C)C(=O)N[C@@H](CN)C(=O)N[C@H](CO)C(=O)N[C@H](CC(C)C)C(=O)N[C@H](CC(C)C)C(=O)N[C@@H](CN)C(=O)N[C@@H](C(=O)N[C@H](CC(C)C)C(=O)N[C@H](CO)C(=O)N[C@@H](CN)C(=O)N[C@H](C)C(=O)N[C@H](CCCCN)C(=O)N[C@H](C)C(=O)N[C@H](C)C(=O)N[C@H](CCCCN)C(=O)N[C@H](CC(C)C)C(=O)N[C@@H](CN)C(=O)N[C@@H](C(=O)N[C@H](CC(C)C)C(=O)N[C@H](CC(C)C)C(=O)N[C@@H](CN)C(=O)N[C@H](C)C(=O)N[C@H](CC(C)C)C(=O)N[C@H](CO)C(=O)N[C@@H](CN)C(N)=O)[C@H](C)O)[C@H](C)O` [D105(Lys^1-6Dap-1), Ac-KL(L-Dap)SLL(L-Dap)TLS(L-Dap)AKAAKL(L-Dap)TLL(L-Dap)ALS(L-Dap)-amide], in data set [2], the “MIC MB9941” value came to 0.8 µM (≈ 2.09 µg/mL), the “MIC MB9949” value is 0.8 µM (≈ 2.09 µg/mL), the “MIC MB9951” value worked out at 3.0 µM (≈ 7.84 µg/mL) and the “MIC MB9952” value is 0.8 µM (≈ 2.09 µg/mL). In data set [2], the “MIC MB9953” value came to 3.0 µM (≈ 7.84 µg/mL) and the “MIC MB9963” value was 1.5 µM (≈ 3.92 µg/mL). In addition, in data set [1], the “MIC 101887” value came to 0.8 µM (≈ 2.09 µg/mL), the “MIC 961997” value was found to be 1.5 µM (≈ 3.92 µg/mL), the “MIC 963618” value is 0.8 µM (≈ 2.09 µg/mL) and the “MIC 964304” value was found to be 1.5 µM (≈ 3.92 µg/mL). In addition, in data set [1], the “MIC 977751” value was 0.8 µM (≈ 2.09 µg/mL), the “MIC 981653” value stood at 0.8 µM (≈ 2.09 µg/mL), the “MIC 1002956” value worked out at 0.8 µM (≈ 2.09 µg/mL) and the “MIC 1007660” value was 0.8 µM (≈ 2.09 µg/mL). Also, in data set [1], the “MIC 1010282” value turned out to be 0.8 µM (≈ 2.09 µg/mL) and the “MIC 1035166” value amounted to 0.8 µM (≈ 2.09 µg/mL). In the data set on human red blood cells, the “HC50 Fold Improvement” value is listed as greater than 287 and the HC50 was greater than 1148 µM.

B1: D86(Lys1-6Dab-1) (peptide)
peptide: Ac-[dK][dL][Dab][dS][dL][dL][Dab][dT][dL][dS][Dab][dA][dK][dA][dA][dK][dL][Dab][dT][dL][dL][Dab][dA][dL][dS][Dab]-NH2
modifications: not fully specified
notes: Designed 26-residue AMP; Lys13/Lys16 specificity determinants; also called D86(6 Dab-1); D86-6 Dab-1
On to B1, for which the MIC (µM) against A. baumannii strain 649 in 25% human serum (no serum: 0.7) with serum proteins was determined as 0.2 µM. Further, the “PA (self-association parameter)” value in data set [3] was 0 min.

B2: D102(Lys1Ser26-5Dab-1) (peptide)
peptide: Ac-[dK][dL][Dab][dS][dL][dL][Dab][dT][dL][dS][Dab][dA][dK][dA][dA][dK][dL][Dab][dT][dL][dL][Dab][dA][dL][dS][dS]-NH2
SMILES: CC(=O)N[C@H](CCCCN)C(=O)N[C@H](CC(C)C)C(=O)N[C@@H](CCN)C(=O)N[C@H](CO)C(=O)N[C@H](CC(C)C)C(=O)N[C@H](CC(C)C)C(=O)N[C@@H](CCN)C(=O)N[C@@H](C(=O)N[C@H](CC(C)C)C(=O)N[C@H](CO)C(=O)N[C@@H](CCN)C(=O)N[C@H](C)C(=O)N[C@H](CCCCN)C(=O)N[C@H](C)C(=O)N[C@H](C)C(=O)N[C@H](CCCCN)C(=O)N[C@H](CC(C)C)C(=O)N[C@@H](CCN)C(=O)N[C@@H](C(=O)N[C@H](CC(C)C)C(=O)N[C@H](CC(C)C)C(=O)N[C@@H](CCN)C(=O)N[C@H](C)C(=O)N[C@H](CC(C)C)C(=O)N[C@H](CO)C(=O)N[C@H](CO)C(N)=O)[C@H](C)O)[C@H](C)O
notes: Designed 26-residue AMP; Ser26; Lys13/Lys16 specificity determinants; also called D102(5 Dab-1)
The molecule B2 displayed an MIC (µM) against A. baumannii strain 649 in 25% human serum (no serum: 0.4) with serum proteins of 0.7 µM. Also, the “PA (self-association parameter)” value in data set [3] is 0 min.

B3: D101(Lys1Ser26-5Lys-1) (peptide)
peptide: Ac-[dK][dL][dK][dS][dL][dL][dK][dT][dL][dS][dK][dA][dK][dA][dA][dK][dL][dK][dT][dL][dL][dK][dA][dL][dS][dS]-NH2
SMILES: CC(=O)N[C@H](CCCCN)C(=O)N[C@H](CC(C)C)C(=O)N[C@H](CCCCN)C(=O)N[C@H](CO)C(=O)N[C@H](CC(C)C)C(=O)N[C@H](CC(C)C)C(=O)N[C@H](CCCCN)C(=O)N[C@@H](C(=O)N[C@H](CC(C)C)C(=O)N[C@H](CO)C(=O)N[C@H](CCCCN)C(=O)N[C@H](C)C(=O)N[C@H](CCCCN)C(=O)N[C@H](C)C(=O)N[C@H](C)C(=O)N[C@H](CCCCN)C(=O)N[C@H](CC(C)C)C(=O)N[C@H](CCCCN)C(=O)N[C@@H](C(=O)N[C@H](CC(C)C)C(=O)N[C@H](CC(C)C)C(=O)N[C@H](CCCCN)C(=O)N[C@H](C)C(=O)N[C@H](CC(C)C)C(=O)N[C@H](CO)C(=O)N[C@H](CO)C(N)=O)[C@H](C)O)[C@H](C)O
notes: Designed 26-residue AMP; Lys at 3, 7, 11, 18, 22; Ser26; Lys13/Lys16 specificity determinants; also called D101(5 Lys-1)
Take B3: the MIC (µM) against A. baumannii strain 649 in 25% human serum (no serum: 0.7) with serum proteins amounted to 0.7 µM. In addition, the “PA (self-association parameter)” value in data set [3] is 6 min.

The HC50 is the concentration that lyses half of the red blood cells.

Values taken from patent US20220105150A1, “AMPHIPATHIC ALPHA-HELICAL ANTIMICROBIAL PEPTIDES TREAT INFECTIONS BY GRAM-NEGATIVE PATHOGENS” (priority 2019, published 2022).
